Experimental data: US10336792B2, “Antimicrobial peptide dendrimers” (priority 2014, dated 2019)
≈ marks a conversion by molar mass, not a printed value. Positions of bridges follow the written chain, without caps; N, C: chain ends. Non-standard residues stand in square brackets, D forms with d. Residues, ends and D or L forms follow the SMILES beside them. Groups on a side chain read outwards from the residue. Chains are numbered I, II in the order given.

Experiments:
P. aeruginosa PA01 (WT) = type: cell-based, Pseudomonas aeruginosa; conditions: WT
Procedure: (§1) Antimicrobial activity was assayed against P. aeruginosa PA01 (WT), P. aeruginosa PT1482 (A-), PT1485 (A-B-), PT1149 (A-B-C-algC), PT331 (Z61) (LPS mutants), P. aeruginosa PEJ2.6, PEJ9.1, ZEM1.A, ZEM9.A (clinical isolates from Université de Genève/Centre Médical Universitaire), Burkholderia cenocepacia (B. ceno), Staphylococcus aureus (S. aureus, MRSA strain) and Acinetobacter baumannii (A. baum) (clinical isolates from Université de Genève/Centre Médical Universitaire). To determine the minimal inhibitory concentration (MIC), microdilution broth method was used. A colony of bacteria was grown in MH-medium overnight at 37° C. The samples were prepared as stock solutions of 8 mg mL^−1 in H2O, diluted to the beginning concentration of 32, 64, 128 or 256 μg/mL in 300 μL MH-medium, added to the first well of 96-well microtiterplate (TPP, untreated) and diluted serially by ½. The concentration of the bacteria was quantified by measuring absorbance at 600 nm and diluted to OD600=0.022 in MH-medium. The sample solutions (150 μL) were mixed with 4 μL diluted bacterial suspension with a final inoculation of about of 5×10^5 CFU. The plates were incubated at 37° C. until satisfactory growth (˜18 h). For each test, two columns of the plate were kept for sterility control (SC, broth only) and growth control (GC, broth with bacterial inoculums, no antibiotics). The minimal inhibitory concentration (MIC) was defined as the lowest concentration of the antimicrobial substance (peptide dendrimer) that inhibited visible growth of the tested bacteria with the unaided eye. For microbiological study Polymyxin was used as references.

[1] = test system: Staphylococcus aureus (COL, MRSA reference strain); type: cell-based; conditions: COL, reference strain
Procedure: as §1
(§2) Ten of the most promising compounds (FIG. 5) were tested for their efficiency against four clinical isolates of P. aeruginosa (ZEM9.A, ZEM1.A, PEJ2.6, PEJ9.1), one S. aureus (COL, MRSA reference strain) and one A. baumannii strain. For the experiments in Genève the peptide dendrimers and reference compounds (polymyxin) were dissolved in PBS and the assay was carried out in Müller-Hinton (MH) broth with a two-fold dilution.

Acinetobacter baumannii = type: cell-based
Procedure: as §1, §2

[2] = test system: P. aeruginosa PEJ2.6, PEJ9.1, ZEM1.A, ZEM9.A (clinical isolates); type: cell-based, Pseudomonas aeruginosa; conditions: PEJ2.6, PEJ9.1, ZEM1.A, ZEM9.A (clinical isolates)
Procedure: as §1, §2

[3] = test system: Pseudomonas aeruginosa (strain PA01); assay: microbe, parasite or virus in culture; type: cell-based; conditions: strain
Outline: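 P. aeruginosa PAO1 grown overnight in LB, diluted to OD600 0.001 and mixed with ⅔-step peptide dilutions, then incubated at 37 °C for 18–24 h. After MTT staining, the lowest concentration with no visible growth was read by eye as the MIC.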

[4] = test system: Bacillus subtilis (strain BR151); type: cell-based; conditions: strain BR151
Outline: (§3)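 Broth microdilution MIC in LB; overnight cultures diluted to OD600 0.001 and mixed 1:1 with ⅔-serially diluted samples (stock 1 mg mL^−1 in H2O), 37° C for 18-24 h. MTT (0.1%) added; MIC read by eye as lowest concentration inhibiting visible growth (yellow).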

male wistar rats = assay: In-vivo toxicity study, single i.v. injection; design: species or system rat; conditions: for visible effects and behaviour after injection: 2 mg/kg single i.v. dose into tail vein, two rats; for survival rate: 2 mg/kg single i.v. dose, monitored 2 days
Description: 4-6 weeks old male wistar rats (weight range 200-500 g) were used in toxicity experiments. Rats were obtained from Zentrale Tierställe Bern (Department of Clinical Research from University of Bern) and housed 4 per cage. Each experimental group includes two rats. All procedures, care and handling of the animals were reviewed and approved by the Veterinärdienst of Kanton Bern, Schweiz and execute in collaboration with the group of Prof. Hugues Abriel from Department of Clinical Research from University of Bern.
Rats were anesthetized with 4% isoflurane and 1 L/min oxygen in an induction chamber. When the rats were sleeping they were transferred on a clinical drape and anesthetized with 1-2% isoflurane and 0.8 l/min oxygen via a mask. The tail was warmed up with warm water and disinfected with 70% ethanol. The intravenous (i.v.) injections into the tail vein included a single dose of the AMPD of 2 mg/kg rat in 500 μL PBS. Before injection each rat was weighted individually and the exact dosage was determined. All rats, including control groups with no injection and i.v. injection of 500 μL PBS, were monitored for their survival and behavior for two days.
The compounds MSt-112, a 3rd generation AMPD with KL motive, MSt-181 its D-enantiomer analogue, MSt-242, a the 3rd generation with RL motive, and MSt-114 with Tyr instead of Lys in the 3rd generation were used for in vivo experiments with male wistar rats to assess their toxicity. These compounds were selected due to their high potencies and high MHCs values, which are at least 10 times higher than their activities. Each compound (concentration of 2 mg/kg) was applied to two rats by intravenous injection into the tail vein to observe if the AMPDs are well tolerated or may cause adverse effects. The concentration used was approx. 5-10 times higher than the MICs. […] The behaviour of the rats was normal. […] Therefore it seems that rats tolerate AMPDs very well, without visible site effects or even casualties.

[5] = test system: Escherichia coli (strain DH5α); type: cell-based; conditions: DH5α
Outline: as §3

Compound	MIC PAO1 (P. aeruginosa PA01 (WT)) [µg/mL]	MIC S. aureus COL [1] [µg/mL]	MIC A. baumannii ATCC19606 (Acinetobacter baumannii) [µg/mL]	MIC P. aeruginosa MDR clinical isolate PEJ2.6 [2] [µg/mL]	MIC P. aeruginosa MDR clinical isolate PEJ9.1 [2] [µg/mL]	MIC P. aeruginosa MDR clinical isolate ZEM1A [2] [µg/mL]	MIC P. aeruginosa MDR clinical isolate ZEM9A [2] [µg/mL]	MIC P. aeruginosa PAO1 [3] [µg/mL]	MIC B. subtilis BR151 [4] [µg/mL]	visible effects and behaviour after injection (male wistar rats)	survival rate (male wistar rats) [%]	MIC E. coli DH5α [5] [µg/mL]	MIC S. aureus (COL, MRSA reference strain) [1]	MIC P. aeruginosa ZEM9.A [2] [µg/mL]
CC(C)C[C@H](NC(=O)[C@H](CCCCN)NC(=O)[C@H](CCCCNC(=O)[C@H](CC(C)C)NC(=O)[C@H](CCCCN)NC(=O)[C@H](CCCCNC(=O)[C@H](CC(C)C)NC(=O)[C@@H](N)CCCCN)NC(=O)[C@H](CC(C)C)NC(=O)[C@@H](N)CCCCN)NC(=O)[C@H](CC(C)C)NC(=O)[C@H](CCCCN)NC(=O)[C@H](CCCCNC(=O)[C@H](CC(C)C)NC(=O)[C@@H](N)CCCCN)NC(=O)[C@H](CC(C)C)NC(=O)[C@@H](N)CCCCN)C(N)=O [Compound G2KL] (I: H-KLK([Leu-Lys])KLKKL-NH2 / II: H-KLK([Leu-Lys])KL; amide I:6-II:C; N-terminus assumed)	>64	>64	>64	>64	>64	>64	>64	–	–	–	–	–	–	–
CC(C)C[C@H](NC(=O)[C@H](CCCCN)NC(=O)[C@H](CCCCNC(=O)[C@H](CC(C)C)NC(=O)[C@H](CCCCN)NC(=O)[C@H](CCCCNC(=O)[C@H](CC(C)C)NC(=O)[C@H](CCCCN)NC(=O)[C@H](CCCCNC(=O)[C@H](Cc1ccc(O)cc1)NC(=O)[C@@H](N)CCCCN)NC(=O)[C@H](Cc1ccc(O)cc1)NC(=O)[C@@H](N)CCCCN)NC(=O)[C@H](CC(C)C)NC(=O)[C@H](CCCCN)NC(=O)[C@H](CCCCNC(=O)[C@H](Cc1ccc(O)cc1)NC(=O)[C@@H](N)CCCCN)NC(=O)[C@H](Cc1ccc(O)cc1)NC(=O)[C@@H](N)CCCCN)NC(=O)[C@H](CC(C)C)NC(=O)[C@H](CCCCN)NC(=O)[C@H](CCCCNC(=O)[C@H](CC(C)C)NC(=O)[C@H](CCCCN)NC(=O)[C@H](CCCCNC(=O)[C@H](Cc1ccc(O)cc1)NC(=O)[C@@H](N)CCCCN)NC(=O)[C@H](Cc1ccc(O)cc1)NC(=O)[C@@H](N)CCCCN)NC(=O)[C@H](CC(C)C)NC(=O)[C@H](CCCCN)NC(=O)[C@H](CCCCNC(=O)[C@H](Cc1ccc(O)cc1)NC(=O)[C@@H](N)CCCCN)NC(=O)[C@H](Cc1ccc(O)cc1)NC(=O)[C@@H](N)CCCCN)C(N)=O [MSt-114, (KY)8(KKL)4(KKL)2(KKL)] (I: H-KYK([Tyr-Lys])KLKKLKKL-NH2 / II: H-KYK([Tyr-Lys])KLKKL / III: H-KYK([Tyr-Lys])KL / IV: H-KYK([Tyr-Lys])KL; amide I:6-IV:C, I:9-II:C, II:6-III:C)	–	–	–	–	–	–	–	2 (≈ 0.405 µM)	13 (≈ 2.63 µM)	slightly bluish extremities which subsided after approx. 5 min	100	–	–	–
CC(C)C[C@H](NC(=O)[C@H](CCCNC(=N)N)NC(=O)[C@H](CCCCNC(=O)[C@H](CC(C)C)NC(=O)[C@H](CCCNC(=N)N)NC(=O)[C@H](CCCCNC(=O)[C@H](CC(C)C)NC(=O)[C@H](CCCNC(=N)N)NC(=O)[C@H](CCCCNC(=O)[C@H](CC(C)C)NC(=O)[C@@H](N)CCCNC(=N)N)NC(=O)[C@H](CC(C)C)NC(=O)[C@@H](N)CCCNC(=N)N)NC(=O)[C@H](CC(C)C)NC(=O)[C@H](CCCNC(=N)N)NC(=O)[C@H](CCCCNC(=O)[C@H](CC(C)C)NC(=O)[C@@H](N)CCCNC(=N)N)NC(=O)[C@H](CC(C)C)NC(=O)[C@@H](N)CCCNC(=N)N)NC(=O)[C@H](CC(C)C)NC(=O)[C@H](CCCNC(=N)N)NC(=O)[C@H](CCCCNC(=O)[C@H](CC(C)C)NC(=O)[C@H](CCCNC(=N)N)NC(=O)[C@H](CCCCNC(=O)[C@H](CC(C)C)NC(=O)[C@@H](N)CCCNC(=N)N)NC(=O)[C@H](CC(C)C)NC(=O)[C@@H](N)CCCNC(=N)N)NC(=O)[C@H](CC(C)C)NC(=O)[C@H](CCCNC(=N)N)NC(=O)[C@H](CCCCNC(=O)[C@H](CC(C)C)NC(=O)[C@@H](N)CCCNC(=N)N)NC(=O)[C@H](CC(C)C)NC(=O)[C@@H](N)CCCNC(=N)N)C(N)=O [MSt-242, (RL)8(KRL)4(KRL)2(KRL)] (I: H-RLK([Leu-Arg])RLKRLKRL-NH2 / II: H-RLK([Leu-Arg])RLKRL / III: H-RLK([Leu-Arg])RL / IV: H-RLK([Leu-Arg])RL; amide I:6-IV:C, I:9-II:C, II:6-III:C)	–	–	–	–	–	–	–	8 (≈ 1.61 µM)	11 (≈ 2.22 µM)	No visible effect	100	3 (≈ 0.606 µM)	below 20 μg/mL	> 20
CC(C)C[C@@H](NC(=O)[C@@H](CCCCN)NC(=O)[C@@H](CCCCNC(=O)[C@@H](CC(C)C)NC(=O)[C@@H](CCCCN)NC(=O)[C@@H](CCCCNC(=O)[C@@H](CC(C)C)NC(=O)[C@@H](CCCCN)NC(=O)[C@@H](CCCCNC(=O)[C@@H](CC(C)C)NC(=O)[C@H](N)CCCCN)NC(=O)[C@@H](CC(C)C)NC(=O)[C@H](N)CCCCN)NC(=O)[C@@H](CC(C)C)NC(=O)[C@@H](CCCCN)NC(=O)[C@@H](CCCCNC(=O)[C@@H](CC(C)C)NC(=O)[C@H](N)CCCCN)NC(=O)[C@@H](CC(C)C)NC(=O)[C@H](N)CCCCN)NC(=O)[C@@H](CC(C)C)NC(=O)[C@@H](CCCCN)NC(=O)[C@@H](CCCCNC(=O)[C@@H](CC(C)C)NC(=O)[C@@H](CCCCN)NC(=O)[C@@H](CCCCNC(=O)[C@@H](CC(C)C)NC(=O)[C@H](N)CCCCN)NC(=O)[C@@H](CC(C)C)NC(=O)[C@H](N)CCCCN)NC(=O)[C@@H](CC(C)C)NC(=O)[C@@H](CCCCN)NC(=O)[C@@H](CCCCNC(=O)[C@@H](CC(C)C)NC(=O)[C@H](N)CCCCN)NC(=O)[C@@H](CC(C)C)NC(=O)[C@H](N)CCCCN)C(N)=O [MSt-181, (kl)8(kkl)4(kkl)2(kkl)] (I: H-[dK][dL][dK]([dL-dK])[dK][dL][dK][dK][dL][dK][dK][dL]-NH2 / II: H-[dK][dL][dK]([dL-dK])[dK][dL][dK][dK][dL] / III: H-[dK][dL][dK]([dL-dK])[dK][dL] / IV: H-[dK][dL][dK]([dL-dK])[dK][dL]; amide I:6-IV:C, I:9-II:C, II:6-III:C)	–	–	–	–	–	–	–	4 (≈ 0.882 µM)	2 (≈ 0.441 µM)	slightly bluish extremities which subsided after approx. 5 min	100	1 (≈ 0.221 µM)	–	–
